# According to PubChem BioAssay (NCI):
#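 Growth conditions: 96-well plates. Treatment: test compound, 48 hours, 5 concentrations. Analysis: linear interpolation between bracketing concentrations; unreached endpoints set to highest concentration. The concentration for 50% growth inhibition is given as GI50. TGI denotes the concentration required for complete inhibition of growth.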
# Tests used:
# Test in all cases: DTP human tumour cell line panel, 48 h
# [1] = tested on: 786-0 renal
# [2] = tested on: A498 renal
# [3] = tested on: A549 NSCLC
# [4] = tested on: ACHN renal
# [5] = tested on: BT-549 breast
# [6] = tested on: CAKI-1 renal
# [7] = tested on: CCRF-CEM leukemia
# [8] = tested on: COLO 205 colon
# [9] = tested on: DU-145 prostate
# [10] = tested on: EKVX NSCLC
# [11] = tested on: HCC-2998 colon
# [12] = tested on: HCT-116 colon
# [13] = tested on: HCT-15 colon
# [14] = tested on: HL-60(TB) leukemia
# [15] = tested on: HOP-62 NSCLC
# [16] = tested on: HOP-92 NSCLC
# [17] = tested on: HS 578T breast
# [18] = tested on: HT29 colon
# [19] = tested on: IGROV1 ovarian
# [20] = tested on: K-562 leukemia
# [21] = tested on: KM12 colon
# [22] = tested on: LOX IMVI melanoma
# [23] = tested on: M14 melanoma
# [24] = tested on: MCF7 breast
# [25] = tested on: MDA-MB-231 breast
# [26] = tested on: MDA-MB-435
# [27] = tested on: MOLT-4 leukemia
# [28] = tested on: NCI-H226 lung
# [29] = tested on: NCI-H23 lung
# [30] = tested on: NCI-H460 lung
# [31] = tested on: NCI-H522 lung
# [32] = tested on: NCI/ADR-RES ovarian
# [33] = tested on: OVCAR-3 ovarian
# [34] = tested on: OVCAR-4 ovarian
# [35] = tested on: OVCAR-5 ovarian
# [36] = tested on: OVCAR-8 ovarian
# [37] = tested on: PC-3 prostate
# [38] = tested on: RPMI-8226 leukemia
# [39] = tested on: RXF 393 renal
# [40] = tested on: SF-268 CNS
# [41] = tested on: SF-295 CNS
# [42] = tested on: SF-539 CNS
# [43] = tested on: SK-MEL-2 melanoma
# [44] = tested on: SK-MEL-28 melanoma
# [45] = tested on: SK-MEL-5 melanoma
# [46] = tested on: SK-OV-3 ovarian
# [47] = tested on: SN12C renal
# [48] = tested on: SNB-19 CNS
# [49] = tested on: SNB-75 CNS
# [50] = tested on: SR leukemia
# [51] = tested on: SW-620 colon
# [52] = tested on: T-47D breast
# [53] = tested on: TK-10 renal
# [54] = tested on: U251 CNS
# [55] = tested on: UACC-257 melanoma
# [56] = tested on: UACC-62 melanoma
# [57] = tested on: UO-31 renal
# [58] = tested on: MALME-3M melanoma
structure (smiles),measurement,setting,value
COc1cc(Cn2c(-c3ccccc3)cc3c2-c2oncc2CC3)cc(OC)c1,GI50,[1],0.601 µM
same,TGI,[1],> 100 µM
same,GI50,[2],0.153 µM
same,TGI,[2],0.75 µM
same,GI50,[3],0.404 µM
same,TGI,[3],> 100 µM
same,GI50,[4],0.786 µM
same,TGI,[4],> 100 µM
same,GI50,[5],0.9 µM
same,TGI,[5],> 100 µM
same,GI50,[6],0.354 µM
same,TGI,[6],> 100 µM
same,GI50,[7],0.337 µM
same,TGI,[7],> 100 µM
same,GI50,[8],0.256 µM
same,TGI,[8],0.653 µM
same,GI50,[9],0.309 µM
same,TGI,[9],1.25 µM
same,GI50,[10],0.449 µM
same,TGI,[10],> 100 µM
same,GI50,[11],0.387 µM
same,TGI,[11],> 100 µM
same,GI50,[12],0.354 µM
same,TGI,[12],> 46.8 µM
same,GI50,[13],0.361 µM
same,TGI,[13],> 100 µM
same,GI50,[14],0.264 µM
same,TGI,[14],2.73 µM
same,GI50,[15],0.521 µM
same,TGI,[15],> 100 µM
same,GI50,[16],4.11 µM
same,TGI,[16],> 100 µM
same,GI50,[17],0.264 µM
same,TGI,[17],50.1 µM
same,GI50,[18],0.315 µM
same,TGI,[18],25.9 µM
same,GI50,[19],0.399 µM
same,TGI,[19],> 100 µM
same,GI50,[20],0.201 µM
same,TGI,[20],> 100 µM
same,GI50,[21],0.313 µM
same,TGI,[21],9.76 µM
same,GI50,[22],0.757 µM
same,TGI,[22],> 100 µM
same,GI50,[23],0.299 µM
same,GI50,[24],0.307 µM
same,TGI,[24],> 100 µM
same,GI50,[25],0.694 µM
same,TGI,[25],> 24.2 µM
same,GI50,[26],0.0815 µM
same,TGI,[26],0.34 µM
same,GI50,[27],0.427 µM
same,TGI,[27],> 100 µM
same,GI50,[28],0.93 µM
same,TGI,[28],> 100 µM
same,GI50,[29],0.452 µM
same,TGI,[29],> 100 µM
same,GI50,[30],0.333 µM
same,TGI,[30],5.32 µM
same,GI50,[31],0.0891 µM
same,TGI,[31],1.98 µM
same,GI50,[32],0.208 µM
same,GI50,[33],0.204 µM
same,TGI,[33],0.477 µM
same,GI50,[34],0.664 µM
same,TGI,[34],> 100 µM
same,GI50,[35],0.551 µM
same,TGI,[35],> 100 µM
same,GI50,[36],0.592 µM
same,TGI,[36],> 100 µM
same,GI50,[37],0.677 µM
same,TGI,[37],> 100 µM
same,GI50,[38],0.459 µM
same,GI50,[39],0.296 µM
same,TGI,[39],> 100 µM
same,GI50,[40],0.876 µM
same,TGI,[40],> 100 µM
same,GI50,[41],0.209 µM
same,TGI,[41],4.03 µM
same,GI50,[42],0.297 µM
same,TGI,[42],> 49 µM
same,GI50,[43],81.2 µM
same,TGI,[43],> 100 µM
same,GI50,[44],0.416 µM
same,TGI,[44],> 100 µM
same,GI50,[45],0.372 µM
same,TGI,[45],2.02 µM
same,GI50,[46],0.4 µM
same,TGI,[46],> 100 µM
same,GI50,[47],0.738 µM
same,TGI,[47],> 100 µM
same,GI50,[48],0.562 µM
same,TGI,[48],> 100 µM
same,GI50,[49],0.201 µM
same,TGI,[49],20.1 µM
same,GI50,[50],0.308 µM
same,TGI,[50],> 40.7 µM
same,GI50,[51],0.36 µM
same,TGI,[51],> 100 µM
same,GI50,[52],> 100 µM
same,TGI,[52],> 100 µM
same,GI50,[53],2.44 µM
same,TGI,[53],> 100 µM
same,GI50,[54],0.427 µM
same,TGI,[54],> 100 µM
same,TGI,[55],> 100 µM
same,GI50,[56],0.314 µM
same,TGI,[56],> 100 µM
same,GI50,[57],0.665 µM
same,TGI,[57],> 100 µM
COc1ccc(C2=Nc3c/c(=C\c4c(O)[nH]c5cc(Cl)ccc45)ccc3=N2)cc1,GI50,[1],7.85 µM
same,TGI,[1],20.6 µM
same,GI50,[2],5.24 µM
same,TGI,[2],> 100 µM
same,GI50,[3],10.1 µM
same,TGI,[3],25.4 µM
same,GI50,[4],17.3 µM
same,TGI,[4],41.3 µM
same,GI50,[5],3.65 µM
same,TGI,[5],18.3 µM
same,GI50,[6],14.5 µM
same,TGI,[6],43.6 µM
same,GI50,[7],1.41 µM
same,TGI,[7],9.21 µM
same,GI50,[8],7.19 µM
same,TGI,[8],21 µM
same,GI50,[9],6.6 µM
same,TGI,[9],21.6 µM
same,GI50,[11],10.2 µM
same,TGI,[11],22.1 µM
same,GI50,[12],2.38 µM
same,TGI,[12],8.8 µM
same,GI50,[13],3 µM
same,TGI,[13],11.5 µM
same,GI50,[14],1.97 µM
same,TGI,[14],4.84 µM
same,GI50,[15],12.4 µM
same,TGI,[15],29 µM
same,GI50,[16],0.553 µM
same,TGI,[16],9.83 µM
same,GI50,[17],10.6 µM
same,TGI,[17],43.1 µM
same,GI50,[18],3.06 µM
same,TGI,[18],11.4 µM
same,GI50,[19],17.6 µM
same,TGI,[19],50.5 µM
same,GI50,[20],2.18 µM
same,TGI,[20],11.5 µM
same,GI50,[21],2.49 µM
same,TGI,[21],14.2 µM
same,GI50,[23],4.17 µM
same,TGI,[23],21.6 µM
same,GI50,[58],2.87 µM
same,TGI,[58],12.7 µM
same,GI50,[24],2.42 µM
same,TGI,[24],12.8 µM
same,GI50,[25],5.23 µM
same,TGI,[25],19.6 µM
same,GI50,[26],0.26 µM
same,TGI,[26],1.97 µM
same,GI50,[27],4.85 µM
same,TGI,[27],29.9 µM
same,GI50,[28],> 100 µM
same,TGI,[28],> 100 µM
same,GI50,[29],10.2 µM
same,TGI,[29],24.2 µM
same,GI50,[30],8.01 µM
same,TGI,[30],26.1 µM
same,GI50,[31],7.07 µM
same,TGI,[31],29.1 µM
same,GI50,[32],5 µM
same,TGI,[32],33.8 µM
same,GI50,[33],2.43 µM
same,TGI,[33],8.24 µM
same,GI50,[34],3.22 µM
same,TGI,[34],13.6 µM
same,GI50,[35],22 µM
same,TGI,[35],60 µM
same,GI50,[36],7.68 µM
same,TGI,[36],22.8 µM
same,GI50,[37],3.18 µM
same,TGI,[37],28.9 µM
same,GI50,[38],1.73 µM
same,TGI,[38],4.62 µM
same,GI50,[39],3.16 µM
same,TGI,[39],12.2 µM
same,GI50,[40],12.9 µM
same,TGI,[40],32.4 µM
same,GI50,[41],12.3 µM
same,TGI,[41],63.8 µM
same,GI50,[42],11.4 µM
same,TGI,[42],28 µM
same,GI50,[43],8.86 µM
same,TGI,[43],26.6 µM
same,GI50,[44],1.55 µM
same,TGI,[44],19.9 µM
same,GI50,[45],10.7 µM
same,TGI,[45],22.7 µM
same,GI50,[46],12.4 µM
same,TGI,[46],30.5 µM
same,GI50,[47],13.9 µM
same,TGI,[47],30 µM
same,GI50,[48],15.1 µM
same,TGI,[48],41.1 µM
same,GI50,[49],3.1 µM
same,TGI,[49],14.2 µM
same,GI50,[50],1.13 µM
same,TGI,[50],3.89 µM
same,GI50,[51],3.01 µM
same,TGI,[51],19 µM
same,GI50,[52],10.7 µM
same,TGI,[52],29.8 µM
same,GI50,[53],21 µM
same,TGI,[53],39.3 µM
same,GI50,[54],2.08 µM
same,TGI,[54],5.64 µM
same,GI50,[55],11 µM
same,TGI,[55],25.8 µM
same,GI50,[56],8.95 µM
same,TGI,[56],22.7 µM
same,GI50,[57],10.2 µM
same,TGI,[57],26.7 µM
